Data taken from article PMC10144566, “Pharmacokinetic Profile Evaluation of Novel Combretastatin Derivative, LASSBio-1920, as a Promising Colorectal Anticancer Agent” (Pharmaceutics, 2023).
pIC50: −log10 of the molar value. Entries after “also recorded” stand apart in the source; their conditions may differ. Where two headings read alike, the source gives them in different places.

Key:
HCT-116 cells = experiment: Annexin V/7-AAD apoptosis assay by flow cytometry, HCT-116; format: cell-based, human; conditions: 6 µM, 48 h, negative control 5.14 ± 0.61%
Protocol: The control group received the same amount of vehicle, of which the concentration was kept constant (below 0.5%). Cell treatments were completed in triplicate. CA4 (0.2 or 0.5 µM) was used as the positive control. Stock solutions of the compounds tested were dissolved in DMSO and diluted in the culture medium to obtain the desired concentrations.
Apoptosis assay: Apoptosis was analyzed using Annexin V/7-AAD staining followed by flow cytometry. Cells were collected and stained using an Annexin V-PE/7-AAD apoptosis detection kit. Annexin V binds to phosphatidylserine (PS) in apoptosis cells as PS translocates from the inner to the outer leaflet of the cytoplasmic membrane. 7-AAD is a fluorescent intercalator of DNA impermeable to the cell, providing a reliable indication of membrane integrity. Double staining distinguishes between viable, early apoptotic, necrotic, and late apoptotic cells. The resulting fluorescence of annexin V-PE at 583 nm and 7-AAD at 680 nm of every sample was analyzed by flow cytometry. The 7-AAD-positive and annexin V-negative cells were considered necrotic. Annexin V-positive cells (7-AAD-positive and 7-AAD-negative cells) were classified as apoptotic. 7-AAD-negative and annexin V-negative cells were deemed viable.

[1] = system: HCT-116 human colorectal cancer cells (colon carcinoma); experiment: MTT cytotoxicity assay, HCT-116; conditions: for pIC50: Homo sapiens
Protocol: (§1) The cytotoxicity of the compounds was determined using the MTT assay [13]. Cells were seeded in 96-well plates as follows: 0.7 × 10^5 cells/well for adherent cancer cells, 0.3 × 10^5 cells/well for suspended cancer cells, and 0.2 × 10^5 cells/well for HPBMCs. […] The control group was treated with the vehicle. […] After incubation, the supernatant was decanted and replaced with fresh medium containing MTT (0.5 mg/mL).

[2] = target: human CK-1δ protein kinase (Homo sapiens, UniProt P48730); experiment: Inhibition of human CK-1δ protein kinase (Kinase-Glo); format: biochemical; conditions: data not shown, read-out: inhibitory activity against human CK-1δ protein kinase
human CK-1δ protein kinase, sequence (P48730 whole entry): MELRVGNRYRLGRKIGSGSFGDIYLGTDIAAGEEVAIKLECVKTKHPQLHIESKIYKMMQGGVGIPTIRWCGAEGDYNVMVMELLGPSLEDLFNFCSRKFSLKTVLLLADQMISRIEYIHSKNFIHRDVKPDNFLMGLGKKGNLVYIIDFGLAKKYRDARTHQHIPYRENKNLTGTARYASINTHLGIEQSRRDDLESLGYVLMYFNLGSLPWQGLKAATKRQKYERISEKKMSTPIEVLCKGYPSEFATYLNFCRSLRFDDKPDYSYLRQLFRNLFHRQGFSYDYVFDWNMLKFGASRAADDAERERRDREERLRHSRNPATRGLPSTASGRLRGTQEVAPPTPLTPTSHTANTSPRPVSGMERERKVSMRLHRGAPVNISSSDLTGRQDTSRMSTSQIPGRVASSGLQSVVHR
Protocol: Inhibition of human CK-1δ protein kinase assay: Test compound (10 µL), CK-1δ enzyme (10 µL), and buffer solution (20 µL) were added to each well of a 96-well plate containing 0.1% casein as substrate and 4 µM ATP. The assay buffer solution constituents were 50 mM HEPES at pH 7.5, 0.01% Brij-35, […], 1 mM EDTA, and 0.01% NaN3. The final concentrations of DMSO were limited to 1%. After 60 min of incubation at 30 °C, the reaction was stopped by the addition of 40 µL of Kinase-Glo®. The luminescence was measured after 10 min using a Fluostar Optima multimode reader (BMG Labtechnologies GmbH, Offenburg, Germany). First, LASSBio-1920 was tested at concentrations of 10 µM, and 5 µM of SB415826, a potent CK-1δ enzyme inhibitor, was employed as a positive control.

[3] = system: human tumor cell lines (HCT-116, SF-295, PC-3, H-1975, PC-9, N-87); experiment: MTT cytotoxicity assay, panel of human tumor cell lines; conditions: 72 h, read-out: IC50 values against all tumor cell lines
Protocol: as §1

PAMPA-GIT permeability = format: in vitro ADME; conditions: PAMPA-GIT, 5 h, room temperature; read-out: Pe (Experimental)
Source text: For this, two 96-well plates were placed one above the other, and between them, an artificial hydrophobic polyvinylidene fluoride (PVDF) membrane, which was impregnated with a lipid solution. The top plate works as the donor compartment and the bottom one as the receiver compartment.
Parallel artificial membrane permeation assay for gastrointestinal tract (GIT-PAMPA): 1% (w/v) phosphatidylcholine was mixed with dodecane as a lipid solution to impregnate the PVDF membrane between the donor and receiver plates to stimulate intestinal permeability. […] A total of 180 µL of the mixture of PBS and DMSO (v/v 95:5) was added to the recipient plate, and 180 µL of the test solution was added to the donor plate. Immediately and carefully, the donor plate was placed above the receiver plate and incubated for 5 h at room temperature. The solution captured on the receptor plate was removed and subsequently analyzed by a UV detector (SpectraMax 5®—Molecular Devices, Sao Jose, CA, USA). The experiments were performed in quadruplicate.

N-87, gastric carcinoma = experiment: MTT cytotoxicity assay, N-87; conditions: Homo sapiens, 72 h, read-out: IC50 (95% CI) N-87
Protocol: as §1

[4] = system: HPBMC, human peripheral blood mononuclear cells; experiment: MTT cytotoxicity assay, HPBMC; format: cell-based; conditions: PBMC, 72 h incubation, read-out: IC50 (95% CI) HPBMC
Protocol: Heparinized blood was collected from healthy, non-smoking donors who had not taken any drugs during the 15 days prior to sampling. Human peripheral blood mononuclear cells (HPBMC) were isolated by a standard density-gradient centrifugation method over Ficoll-Hypaque® media (Merck-Sigma-Aldrich, St. Louis, MO, USA). HPBMC were washed and resuspended in RPMI-1640 medium supplemented with 20% fetal bovine serum, 2 mM glutamine, 100 U/mL penicillin, and 100 µg/mL streptomycin at 37 °C with 5% CO2. Phytohemagglutinin (3%) was added at the beginning of the culture.
The cytotoxicity of the compounds was determined using the MTT assay. Cells were seeded in 96-well plates as follows: 0.7 × 10^5 cells/well for adherent cancer cells, 0.3 × 10^5 cells/well for suspended cancer cells, and 0.2 × 10^5 cells/well for HPBMCs. The treatments were dissolved in DMSO and added to each well using an automated liquid handler for high-throughput screening (Biomek 3000—Beckman Coulter, Inc., Fullerton, CA, USA) and incubated for either 24, 48, and 72 h. The control group was treated with the vehicle. […] After incubation, the supernatant was decanted and replaced with fresh medium containing MTT (0.5 mg/mL). Three hours later, the MTT’s formazan product was dissolved in 150 µL of pure DMSO, and absorbance was measured at 595 nm (DTX 880 Multimode Detector, Beckman Coulter, Inc., Pasadena, CA, USA).
Data were presented as mean ± standard error of the mean (SEM) from three independent experiments performed in triplicate, calculated using Prism 8.0 (GraphPad/Intuitive Software for Science, San Diego, CA, USA). The IC50 of the compounds was obtained using a non-linear regression of the cytotoxicity curves.

[5] = system: PC-3, prostate adenocarcinoma; experiment: MTT cytotoxicity assay, PC-3; conditions: Homo sapiens, 72 h, read-out: IC50 (95% CI) PC-3
Protocol: as §1

[6] = system: PC-9, lung adenocarcinoma (overexpressed EGFR with L858R mutation); experiment: MTT cytotoxicity assay, PC-9; conditions: for pIC50: Homo sapiens
Protocol: as §1

[7] = In vitro plasma stability; format: in vitro ADME; conditions: rat plasma, 37 °C, 100 μM
Protocol: The in vitro stability of the test compounds was studied in rat plasma. Blood from different Wistar rats was centrifuged with heparin at 20 °C for 15 min at 2000 rpm to separate the plasma, which was diluted to 80% with 0.05 M phosphate-buffered saline (PBS, pH 7.4) at 37 °C [23]. The test compounds were added to 200 µL of preheated plasma solution to yield a final concentration of 100 μM. The final concentration of DMSO in the incubation mixture was 0.5%. The assays were performed with agitation in a water bath at 37 °C and conducted in triplicate. Samples were taken at 0, 30, 60, and 240 min. After each sampling time, 500 µL of cold methanol was added to the mixture immediately, followed by 500 µL of cold acetonitrile. The samples were mixed and centrifuged at room temperature for 15 min at 13,000 rpm. The supernatant was analyzed by HPLC (acetonitrile/water, 7:3, with 0.1% trifluoroacetic acid) using an internal standard (4-acetylbiphenyl—final concentration of 20 µM).

[8] = IC50 for HPBMC/IC50 for the tumor cell line, 72 h

inhibition at 10 µM [2]: < 10%
Papp at 5 h, 0.5 mM (PAMPA-GIT permeability): 6.6 ×10⁻⁶ cm/s
SMILES: COc1cc(C(=O)N/N=C/c2cc3ccccc3s2)cc(OC)c1OC [LASSBio-1920, (E)-N′-(Benzo[b]thiophen-2-ylmethylene)-3,4,5-trimethoxybenzohydrazide]
apoptotic HCT-116 cells (HCT-116 cells): 12.62 ± 2.26%
pIC50 ([1]; HCT-116, 24 h, read-out: IC50 (95% CI) HCT-116 24 h): < 4.00
pIC50 ([1]; HCT-116, 48 h, read-out: IC50 (95% CI) HCT-116 48 h): 5.57
pIC50 ([1]; HCT-116, 72 h, read-out: IC50 (95% CI) HCT-116): 7.22
pIC50 ([1]; HCT-116, 72 h, read-out: IC50 (95% CI) HCT-116 72 h): 7.22
SI HPBMC/HCT-116 [1, 8]: 2.3
pIC50 [3]: 5.77 to 7.22
pIC50 (N-87, gastric carcinoma): 6.36
pIC50 [4]: 6.85
pIC50 [5]: 5.77
pIC50 ([6]; 24 h, read-out: IC50 (95% CI) PC-9 24 h): 4.10
pIC50 ([6]; 48 h, read-out: IC50 (95% CI) PC-9 48 h): 6.00
pIC50 ([6]; 72 h, read-out: IC50 (95% CI) PC-9 72 h): 7.15
SI HPBMC/PC-9 [6, 8]: 2
plasma stability [7]: stable at all time points of the assay; also recorded: not metabolized by plasma esterases, exhibiting substantial stability; also recorded: has plasma stability
